Assay results published in patent US20190375778A1, “ADENOSINE DERIVATIVES FOR USE IN THE TREATMENT OF CANCER” (NuCana plc, priority 2016, published 2019).
Where two headings read alike, the source gives them in different places.

Legend:
Lovo = assay: MTT cytotoxicity assay, Lovo; type: cell-based; conditions: Homo sapiens, 96 h compound exposure, read-out: absolute IC50, Lovo
From the text: Lovo: cell line derived from a metastatic site in a patient with colon cancer MCF7: human oestrogen sensitive mammary epithelial cell line PC3: human prostate cancer cell line A549: cancerous lung tissue derived cells L1210: lymphoblast cell line derived from a mouse with lymphocytic leukaemia FM3A: mammary carcinoma murine cells CEM: human T-lymphoblasts, derived from the blood of a patient with acute lymphoblastic leukaemia HeLa: epithelial cells from a patient with cervical adenocarcinoma
Anti-tumour evaluation in MCF7, LoVo, A549 and PC3 cell lines was performed by MTT assay. Compounds were prepared as 0.1-100 mM stock solutions dissolved in DMSO and stored at −20° C. Cells were seeded into 96-well microtitre plates at a density of 5×10^3 cells per well and allowed 24 hours to adhere. Decimal compound dilutions were prepared in medium immediately prior to each assay (final concentration 0.1-100 μM). Experimental medium was DMEM+10% FCS (PC3 and Lovo) or RPMI+10% heat inactivated FCS (A549 and MCF7). Following 96 h compound exposure at 37° C., 5% CO2, MTT reagent (Sigma Aldrich) was added to each well (final concentration 0.5 mg/ml). Incubation at 37° C. for 4 h allowed reduction of MTT by viable cells to an insoluble formazan product. MTT was removed and formazan solubilised by addition of 10% Triton X-100 in PBS. Absorbance was read on a Tecan Sunrise spectrophotometer at 540 nm as a measure of cell viability; thus inhibition relative to control was determined (IC50).

CTS cell line = assay: Intracellular 8-Cl-ATP/ATP by LC-MS/MS, CTS; type: cell-based; conditions: for difference in intracellular accumulation of 8-Cl-ATP on inhibiting hENT1: with NBTI
Method: Cell lines with 3×10^6 cells/ml were used. Cells were treated with 1 μl of 20 μM of each 8-Cl-A, compound A, compound B and compound D and incubated for 2 hours at 37° C. with 5% CO2. After incubation, the cells were centrifuged (ambient, 1200 rpm, 5 minutes), the supernatant was removed, and the pellet was washed with lml of PBS and centrifuged (ambient, 1200 rpm, 5 minutes). The supernatant was removed, the pellet was reconstituted in 100 μl of PBS and 100 μl of 0.8M perchloric acid. This was then centrifuged (ambient, 1200 rpm, 5 minutes) and 180 μl of the supernatant was transferred to new tubes and stored at −80° C. until time of analysis.
(§1) For inhibitor studies the cell lines were treated in the same way as described above but before treatment with drugs, a number of inhibitors were added: • 1) Nitrobenzylthioinosine (NBTI) (Sigma-Aldrich, St. Louis, Mo.) inhibits hENT1. • 2) A-134974 dihydrochloride hydrate (Sigma-Aldrich, St. Louis, Mo.) inhibits adenosine kinase. • 3) EHNA hydrochloride (Sigma-Aldrich, St. Louis, Mo.) inhibits adenosine deaminase.
Cells were treated with 1 μl of 10 μM of each inhibitor and left for 5 minutes before adding the drug. The cells were then incubated for 2 hours at 37° C. with 5% CO2.
The analytes were resolved using an ultra-performance liquid chromatography system (Accela UPLC, Thermo Scientific, UK) equipped with a Biobasic A×5 μm, 50×2.1 mm column (Thermo Electron Corporation, Murrieta, Calif., USA) and mobile phase consisting of a mixture of 10 mM NH4Ac in ACN/H2O (30:70 v/v), pH6.0 (A), and 1 mM NH4Ac in ACN/H2O (30:70 v/v), pH10.5 (B). The mobile phase gradient was employed, comprising: buffer A=95% at 0-0.5 minutes, from 95 to 0% over 1.25 minutes, held at 0% for 1.75 minutes, from 0-95% over 0.1 minutes, ending with 95% for 2.9 minutes, all at a flow rate of 500 μl/min.
For compounds detection a triple stage quadrupole Vantage mass spectrometry system (Thermo Scientific, UK) equipped with an electrospray ion source was used. Samples were analysed in the Multiple Reaction Monitoring, negative ion modes at spray voltage 3000V.
(§2) The dose-response curves of cytotoxicity of the drugs was determined using non-linear regression analysis of percentage cell viability versus concentration and EC50 values were obtained. The intracellular assay was conducted in five repeats for each condition. Intracellular assay was determined using paired T test (two-tailed) analysis of 8-ChloroATP/ATP concentration and p values were obtained. Drug stability in human plasma was determined using two-way ANOVA analysis. For all the analysis, Prism Software program (GraphPad Software) was used.

MDAMB231 = assay: CellTiterGlo viability assay, MDAMB231; type: cell-based, Human; conditions: for IC50: Homo sapiens, read-out: IC50 MDAMB231
Method: In vitro viability assay were performed to assess the effects of compounds on cell viability in selected cell lines over ˜72 hrs using the CellTiterGlo (CTG, Promega-G7573) assay. The tests were performed in duplicates with treatment of compounds at 9 points, 3.16 folds titration in 96 well plates over ˜72 hrs. The compound starting concentrations were 198 μM. Cell viability assay using CellTiterGlo in 96-well plate were performed. Compound treatment 72 hrs, standard growth conditions, duplicates. Compounds were dissolved to 40 mM with thawed […]. Compounds were serially diluted at 3.16 fold in thawed DMSO, and warmed to 37° C. before being dissolved in media (2 μl+200 μl). After compounds were dissolved in media, media containing compounds were warmed to 37° C. in incubator and then compounds in media were added to cell plates (50 μl+50 μl) in duplicates. The compounds' final concentrations were from […] to 19.9 nM. All compound solubilities were checked and recorded again, then the plates were transferred to CO2 tissue culture incubator immediately and incubated for 3 days. DMSO final concentration is 0.5%.

K-562 = assay: ATP ViaLight cytotoxicity assay, K-562; type: cell-based; conditions: Homo sapiens, K562, 72 h
Method: HL-60, CTS, and K-562 are leukaemia cell lines, which were obtained from the American Type Culture Collection (ATCC), Middlesex. HL-60 cell line is of acute promyelocytic leukaemia; CTS cell line is of acute myeloid leukaemia; and K-562 cell line is of chronic myeloid leukaemia.
HL-60, CTS, and K-562 cell lines were cultured in RPMI-1640 medium (Sigma Aldrich, UK), which was supplemented with 10% Fetal Bovine Serum (FBS) (PAA Laboratories), 1% amphotericin B (5.5 ml) and 1% penicillin/streptomycin (5.5 ml) (PAA Laboratories) and grown in flasks at 37° C. incubator with 5% CO2.
as §1
ATP ViaLight™ plus assay kit (Lonza, USA: Product No. LT07-121) was used for treating the cells in luminescence compatible 96 well plates (initial concentration of cells was 1×10^4 cells/well) with 8-Cl-A and ProTides, concentrations: 0, 0.1, 0.5, 1, 5 and 10 μM were added to cells, respectively, followed by incubation for 72 hours at 37° C. incubator with 5% CO2. For inhibitor studies, […] concentration of each inhibitor was added before drugs and incubated for 72 hours at 37° C. with 5% CO2.
After incubation, 50 μl of cell lysis reagent was added to the 96 well plates to release the intracellular ATP, followed by 100 μl of ATP monitoring reagent (AMR). The luminescent values of each well were determined using FLUOstar OPTIMA microplate reader (BMG Labtech) which converted ATP into light by using luciferase enzyme.
as §2

SMILES | IC50 (Lovo) | difference in intracellular accumulation of 8-Cl-ATP on inhibiting adenosine kinase (CTS cell line; with A-134974) | difference in intracellular accumulation of 8-Cl-ATP on inhibiting hENT1 (CTS cell line) | MI% MDAMB231 (MDAMB231; CellTiterGlo, 72 hrs) | IC50 (MDAMB231; MDA-MB-231, 72 h) | EC50 (K-562; Control (no inhibitor)) | EC50 (K-562; with NBTI (hENT1 inhibitor)) | IC50 (MDAMB231; MDA-MB-231, CellTiterGlo, 72 hrs) | 8-Cl-ATP/ATP ratio after inhibiting adenosine kinase (CTS cell line; with A-134974) | EC50 (K-562; with A-134974 (adenosine kinase inhibitor))
C[C@H](NP(=O)(OC[C@H]1O[C@@H](n2c(Cl)nc3c(N)ncnc32)[C@H](O)[C@@H]1O)Oc1ccccc1)C(=O)OCc1ccccc1 (mixture of isomers) [C, (2S)-Benzyl 2-(((((2R,3S,4R,5R)-5-(6-amino-8-chloro-9H-purin-9-yl)-3,4-dihydroxy-tetrahydrofuran-2-yl)methoxy)(phenoxy)phosphoryl)amino)propanoate] | 0.1 to 5 µM |  |  |  |  |  |  |  |  | 
Nc1ncnc2c1nc(Cl)n2[C@@H]1O[C@H](COP(=O)(NCC(=O)OC2CCCCC2)Oc2ccccc2)[C@@H](O)[C@H]1O (mixture of isomers) [Compound A, Cyclohexyl 2-(((((2R,3S,4R,5R)-5-(6-amino-8-chloro-9H-purin-9-yl)-3,4-dihydroxy-tetrahydrofuran-2-yl)methoxy)(phenoxy)phosphoryl)amino)acetate] | 0.1 to 5 µM | did not produce significant difference | did not produce significant difference |  |  |  |  |  |  | 
Nc1ncnc2c1nc(Cl)n2[C@@H]1O[C@H](COP(=O)(NCC(=O)OCc2ccccc2)Oc2ccccc2)[C@@H](O)[C@H]1O (mixture of isomers) [Compound B, Benzyl 2-(((((2R,3S,4R,5R)-5-(6-amino-8-chloro-9H-purin-9-yl)-3,4-dihydroxytetra-hydrofuran-2-yl)methoxy)(phenoxy)phosphoryl)amino)acetate] | 0.1 to 5 µM | did not produce significant difference | did not produce significant difference | 76% | 5 to 15 µM | 2.86 µM | 12.8 µM |  |  | 
Nc1ncnc2c1nc(Cl)n2[C@@H]1O[C@H](CO)[C@@H](O)[C@H]1O [8-chloroadenosine, 8-Chloroadenosine, reference compound] | 0.1 to 5 µM |  |  | 74% |  | 0.64 µM | 4.69 µM | 0.1 to 5 µM | almost zero | 
C[C@H](NP(=O)(OC[C@H]1O[C@@H](n2c(Cl)nc3c(N)ncnc32)C(O)C1O)Oc1cccc2ccccc12)C(=O)OCc1ccccc1 (stereo partly drawn) [Compound D, (2S)-Benzyl 2-(((((2R,3S,4R,5R)-5-(6-amino-8-chloro-9H-purin-9-yl)-3,4-dihydroxy-tetrahydrofuran-2-yl)methoxynaphthalene-1-yloxy)phosphoryl)amino)propanoate] |  |  | did not produce significant difference |  |  | 6.63 µM | 1.73 µM |  |  | 19.7 µM
CC(C)C[C@H](NP(=O)(OC[C@H]1O[C@@H](n2c(Cl)nc3c(N)ncnc32)C(O)C1O)Oc1ccccc1)C(=O)OCc1ccccc1 (stereo partly drawn) [V, 5′-([(Benzyloxy-L-leucin-N-yl)-phenyl]-phosphatyl) 8-chloroadenosine] | 0.1 to 5 µM |  |  | 99% | 15 to 100 µM |  |  |  |  | 
